Entries after “also recorded” stand apart in the source; their conditions may differ. Where two headings read alike, the source gives them in different places.
Tests used:
[1] = target: T1, receptor 5.24 (Carassius auratus, UniProt Q9PW88); assay: biochemical; format: binding; settings: for binding to receptor 5.24, in words: comparative binding studies
T1 construct: The receptor 5.24 full length cDNA detects 1-2 bands in genomic DNA blots; expressed in transfected cells; host or cells: HEK 293 cells expressing SV40 large T antigen (293-TSA)
T1 sequence (Q9PW88 25-877): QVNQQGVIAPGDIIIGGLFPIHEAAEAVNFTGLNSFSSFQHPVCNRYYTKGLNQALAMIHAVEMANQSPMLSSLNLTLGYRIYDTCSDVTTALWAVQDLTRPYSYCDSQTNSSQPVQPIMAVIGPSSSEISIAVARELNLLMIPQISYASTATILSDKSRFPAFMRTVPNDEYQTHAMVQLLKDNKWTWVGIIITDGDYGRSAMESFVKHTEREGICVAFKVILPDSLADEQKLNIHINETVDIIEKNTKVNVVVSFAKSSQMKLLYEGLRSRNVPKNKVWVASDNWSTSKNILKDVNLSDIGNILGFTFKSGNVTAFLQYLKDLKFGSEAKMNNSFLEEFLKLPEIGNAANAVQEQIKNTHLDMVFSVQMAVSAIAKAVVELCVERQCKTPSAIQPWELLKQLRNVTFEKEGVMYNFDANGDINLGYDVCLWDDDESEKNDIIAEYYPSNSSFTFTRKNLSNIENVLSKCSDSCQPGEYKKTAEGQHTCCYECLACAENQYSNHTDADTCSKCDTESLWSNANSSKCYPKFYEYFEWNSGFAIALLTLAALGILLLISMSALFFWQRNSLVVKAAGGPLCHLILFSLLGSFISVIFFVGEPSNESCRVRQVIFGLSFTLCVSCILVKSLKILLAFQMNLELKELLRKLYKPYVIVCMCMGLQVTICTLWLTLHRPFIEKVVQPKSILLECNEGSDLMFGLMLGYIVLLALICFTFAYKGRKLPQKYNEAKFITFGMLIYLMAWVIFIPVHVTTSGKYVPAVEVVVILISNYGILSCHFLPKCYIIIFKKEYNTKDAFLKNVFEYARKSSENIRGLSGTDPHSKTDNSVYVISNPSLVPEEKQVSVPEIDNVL
Experimental: Structure-Activity Properties of Compounds Interacting with the Cloned Goldfish Amino Acid Odorant Receptor. An understanding of how odorant receptors are used to encode olfactory information requires a characterization of the odorant specificities of individual receptor types. We therefore wished to determine the relative specificity of receptor 5.24 for structurally related ligands. […] Briefly, 3H-arginine binding to membranes from receptor 5.24-expressing HEK 293 cells was assayed in the absence or presence of varying concentrations of competitor ligands.
Mammalian Cell Culture and DNA Transfections. For cell transfections, the receptor 5.24 cDNA insert was subcloned into two expression vectors: CMVI, which utilizes a human cytomegalovirus (CMV) immediate early promoter-enhancer plus the CMV intron A sequence to drive expression, and 608RX-2.2L, which is similar to CMVI except the cDNA insert is followed by an internal ribosome entry site (IRES)—enhanced green fluorescent protein (EGFP) coding sequence; 608RX-2.2L also contains a puromycin resistance gene. For transient assays, HEK 293 cells expressing the SV40 large T antigen (293 TSA cells) were transfected with the CMVI-receptor 5.24 or CMVI control plasmid using lipofectamine (Life Technologies) and harvested at 48 hours for membrane preparations. For stable cell lines, 293-TSA cells were transfected with the 608RX-2.2L-receptor 5.24 plasmid or a control 608RX-2.2L plasmid and selected in puromycin. Colonies showing high levels of EGFP fluorescence (as judged by epifluorescence microscopy) were picked, expanded, and screened for 3H-L-arginine binding (see below).
Membrane Preparations and Ligand Binding Assays. Membranes for ligand binding assays were prepared by washing confluent cells three times with phosphate buffered saline (PBS), detaching cells with a PBS-based enzyme-free dissociation solution, and resuspending cells in ice-cold 5.0 mM Hepes, pH 7.4, 1.0 mM EDTA, 1.0 μg/ml leupeptin, 0.5 mM PMSF. All subsequent manipulations were performed on ice. After a 30 min incubation, the cell suspension was homogenized and centrifuged at 100,000×g for 30 min. Cell membrane pellets were washed twice by resuspension and centrifugation in binding buffer (20 mM Hepes, pH 7.4, 1.0 mM EDTA, 2.0 mM MgCl2, 1.0 μg/ml leupeptin, 0.5 mM PMSF), resuspended in binding buffer, and frozen at −80° C.
Saturation binding assays were performed using 20-25 μg of membrane protein in a final volume of 100 μl binding buffer and increasing concentrations of [2,3-3H] L-arginine (specific activity=40 Ci/mmol; Dupont NEN). Non-specific binding was measured in the presence of 500 μM unlabeled L-arginine. Competition assays were performed with 500 nM [2,3-3H] L-arginine and increasing concentrations of competitor ligands. All incubations were performed at 4° C. for 60 min and terminated by rapid filtration through Whatman GF/C filters pretreated with ice cold 0.1% polyethyleneimine. Filters were washed three times with 4.0 ml ice cold 20 mM Hepes, pH 7.4, and retained radioactivity was measured by scintillation counting.

[2] = target: T1, receptor 5.24; assay: evoked currents in Xenopus oocytes expressing receptor 5.24 (two-electrode voltage clamp); format: cell-based, goldfish
Text: Identification by Expression Cloning of a cDNA Encoding a Goldfish Odorant Receptor. RNA was synthesized from pools of goldfish olfactory cDNA clones (900 individual clones per pool) and injected into Xenopus oocytes together with synthetic RNAs encoding GIRK and Gaolf. Oocytes were then screened for responses upon exposure to odorant cocktails containing amino acids, bile acids, or sex pheromones. […] The response to amino acids was biphasic, beginning with an oscillating inward current above the basal inward K+ current, followed by a decline in inward current to below the basal level. Such a biphasic effect is thought to be caused by Gaq-mediated activation of phospholipase C (responsible for the intial inward current via IP3) and protein kinase C (leading to suppression of the K+ current through phosphorylation of GIRK channel subunits) (Sharon et al., 1997).
Iterative subdivision of pool 19 by sib-selection allowed the isolation of a single clone encoding a receptor, designated receptor 5.24.
Oocytes were removed from anesthetized Xenopus laevis and treated with collagenase. Forty nanograms of cRNA from each cDNA library pool (˜40 pg cRNA/clone) was injected per oocyte, together with cRNAs encoding Gaolf and the GIRK subunits Kir 3.1 and Kir 3.4 (˜30 pg each). Approximately 30 pools were assayed before these primary screens were halted. Injected oocytes were incubated at 17° C. for over 80 hours prior to electrophysiological recordings. Recordings were performed by two-electrode voltage clamping using an Axoclamp-2A amplifier (Axon Instruments) or a Dagan CA-1 amplifier (Dagan Corp.). Data acquisition and analysis were performed using pCLAMP software (Axon Instruments). Membrane potential was held at −80 mV. For trials involving GIRK, oocytes were first perfused with Na-MBSH (88 mM NaCl, 1 mM KCl, 2.4 mM NaHCO3, 10 mM Hepes, pH 7.5, 0.82 mM MgSO4[7H2O], 0.33 mM Ca[NO3]2[4H2O], 0.41 mM CaCl2[2H2O]), and then switched into K-MBSH, which contains elevated K+ (88 mM KCl, 1 mM NaCl) until the basal current had stabilized (˜45 seconds) before challenging with agonist. Recordings on oocytes injected with receptor 5.24 in the absence of Gaolf and/or GIRK subunits were performed in Na-MBSH. Oocytes were exposed to solutions containing different agonists by switching bathing solutions with an 8 channel valve (Hamilton).

[3] = 3H-arginine displacement, read-out: Ki
[4] = displacement of 3H-L-arginine from membranes of HEK 293 cells expressing receptor 5.24, read-out: Ki (binding affinity)
[5] = read-out: Ki (binding affinity), displacement of 3H-L-arginine from membranes of HEK 293 cells expressing receptor 5.24

Row | Structure (SMILES) | binding to receptor 5.24, in words [1] | Ki [1, 4] | activation of receptor 5.24 (evoked currents), in words [2] | other results
1 | NCCC[C@H](N)C(=O)O [L-Ornithine] |  |  |  | Ki [1, 3]: 1 µM
2 | N[C@@H](Cc1c[nH]c2ccccc12)C(=O)O [L-Tryptophan] | low affinities | 4.1 µM | little or no response | 
3 | C[C@H](N)C(=O)O [L-Alanine] |  | 5.6 µM | smaller responses | 
4 | NC(=O)CC[C@H](N)C(=O)O [L-Glutamine] |  | 0.32 µM |  | 
5 | NC(=O)NCCC[C@H](N)C(=O)O [L-Citruline] |  | 0.96 µM |  | 
6 | CC(C)[C@H](N)C(=O)O [L-Valine] |  | 6.2 µM |  | 
7 | NC(=O)C[C@H](N)C(=O)O [L-Asparagine] |  | 2.1 µM |  | 
8 | NCCCCN [Putrescine] |  | > 1000 µM |  | 
9 | CSCC[C@H](N)C(=O)O [L-Methionine] |  | 0.81 µM | smaller responses | 
10 | CC(C)C[C@H](N)C(=O)O [L-Leucine] |  | 4.4 µM |  | 
11 | NCC(=O)O [L-Glycine] |  | 3.9 µM |  | 
12 | N[C@@H](Cc1ccccc1)C(=O)O [L-Phenylalanine] | low affinities | 5.8 µM | little or no response | 
13 | COC(=O)[C@@H](N)CCCNC(=N)N[N+](=O)[O-] [L-NAME] | modest affinity | 1.02 µM |  | 
14 | NCCCC(=O)O [γ-Aminobutyric Acid (GABA), γ-Aminobutyric Acid] | no specific interactions |  |  | Ki [1]: > 1000 µM; Ki [1, 5]: > 1000 µM
15 | N=C(N)NCCCCN [Agmatine] | displaces 3H-arginine very poorly; also recorded: essentially no binding |  |  | Ki [1]: > 1000 µM; Ki [1, 5]: > 1000 µM
16 | N[C@@H](CS)C(=O)O [L-Cysteine] |  | 0.53 µM |  | 
17 | N[C@@H](CC(=O)O)C(=O)O [L-Aspartate] |  |  |  | Ki [1]: 27 µM
18 | NCCCCCN [Cadaverine] | essentially no binding | > 1000 µM |  | Ki [1, 3]: > 1000 µM
19 | C[C@@H](O)[C@H](N)C(=O)O [L-Threonine] |  | 3.2 µM | smaller responses | 
20 | NCCC(=O)N[C@@H](Cc1cnc[nH]1)C(=O)O [Carnosine] | no specific interactions | > 1000 µM |  | Ki [1, 3]: > 1000 µM
21 | N[C@@H](Cc1ccc(O)cc1)C(=O)O [L-Tyrosine] | low affinities |  | little or no response | Ki [1]: 16 µM
22 | N[C@@H](Cc1c[nH]cn1)C(=O)O [L-Histidine] | low affinities |  | little or no response | Ki [1]: 13 µM
23 | O=C(O)[C@@H]1CCCN1 [L-Proline] | low affinities | 58 µM |  | 
24 | CC[C@H](C)[C@H](N)C(=O)O [L-Isoleucine] |  | 2.2 µM | smaller responses | 
25 | N=C(N)NCCCC[C@H](N)C(=O)O [L-Homoarginine] |  |  |  | Ki [1]: 1.63 µM
26 | N[C@@H](CCC(=O)O)C(=O)O [L-Glutamate] |  | 6.7 µM |  | fold decrease in affinity / displacement relative to arginine or lysine ([1]; 3H-arginine displacement): approximately 80 fold; activation of receptor 5.24 (evoked currents), in words ([2]; listed as Glutamate): does not appear to activate; activation of receptor 5.24 (evoked currents), in words ([2]; listed as glutamate): little or no response; also recorded: not activated
27 | [Ca+2] [calcium] |  |  | not activated | 
28 | NCCS(=O)(=O)O [Taurine] | no specific interactions | > 1000 µM |  | Ki [1, 3]: > 1000 µM

Source: patent US6410249B1, “Odorant receptors” (priority 1999, dated 2002)
